Data set [1] deals with Stromal interaction molecule 1/Protein orai-3 (Homo sapiens, UniProt Q13586+Q9BRQ5). Put plainly: Inhibition of human STIM1/Orai3 expressed in HEK293 cells assessed as reduction in Orai3 current by electrophysiological method. Type of data set: cell-based.
Data set [2] addresses T1, ORAI1/STIM1 (Homo sapiens, UniProt Q13586+Q96D31). As to the kind of experiment: Inhibition of human STIM1/Orai1 expressed in HEK293 cells assessed as reduction in Orai1 current by electrophysiological method. Type of data set: cell-based.
Data set [3] can be described thus: Cmax in Lewis rat at 1 mg/kg, iv measured upto 24 hrs by LC-MS/MS analysis. The format is ADME, organism-based. On the set-up: route intravenous, dose 1 mg/kg, time <=24. The following applies: in vivo.
The nature of data set [4]: Volume of distribution at steady state in Lewis rat at 1 mg/kg, iv measured upto 24 hrs by LC-MS/MS analysis. Type of data set: ADME, organism-based. The following applies: in vivo, read-out: Vdss.
Data set [5] in a line: Half life in Lewis rat at 10 mg/kg, po measured upto 24 hrs by LC-MS/MS analysis. Type of data set: ADME, organism-based. The following applies: in vivo.
Data set [6] can be described thus: Tmax in Lewis rat at 10 mg/kg, po measured upto 24 hrs by LC-MS/MS analysis. The format is ADME, organism-based. The following applies: in vivo.
Data set [7] in a line: Oral bioavailability in Lewis rat at 10 mg/kg measured upto 24 hrs by LC-MS/MS analysis. The format is ADME, organism-based. The following applies: in vivo.
Data set [8] in a line: Tmax in Lewis rat at 1 mg/kg, iv measured upto 24 hrs by LC-MS/MS analysis. Type of data set: ADME, organism-based. The following applies: in vivo.
A short description of data set [9]: Half life in Lewis rat at 1 mg/kg, iv measured upto 24 hrs by LC-MS/MS analysis. Type of data set: ADME, organism-based. The following applies: in vivo.
Data set [10] in a line: Cmax in Lewis rat at 10 mg/kg, po measured upto 24 hrs by LC-MS/MS analysis. Type of data set: ADME, organism-based. Set-up: route oral, dose 10 mg/kg, time <=24. The following applies: in vivo.
The nature of data set [11]: Clearance in Lewis rat at 1 mg/kg, iv measured upto 24 hrs by LC-MS/MS analysis. Type of data set: ADME, organism-based. The following applies: in vivo.
Data set [12] can be described thus: AUClast in Lewis rat at 1 mg/kg, iv measured upto 24 hrs by LC-MS/MS analysis. Type of data set: ADME, organism-based. Set-up: route intravenous, dose 1 mg/kg, time <=24. The following applies: in vivo.
The nature of data set [13]: AUClast in Lewis rat at 10 mg/kg, po measured upto 24 hrs by LC-MS/MS analysis. The format is ADME, organism-based. Set-up: route oral, dose 10 mg/kg, time <=24. The following applies: in vivo.
Data set [14] in a line: Inhibition of SOCE in human Jurkat E6.1 cells preincubated for 10 to 30 mins in presence of thapsigargin followed by calcium chloride addition and measured after 10 mins by FLIPR-tetra analysis. Type of data set: cell-based.
The target of data set [15] is Protein orai-2/Stromal interaction molecule 1 (Homo sapiens, UniProt Q13586+Q96SN7). As to the kind of experiment: Inhibition of Orai2/STIM1 (unknown origin). The format is protein-complex assay.
Chain of Protein orai-2/Stromal interaction molecule 1 (Q96SN7 whole entry): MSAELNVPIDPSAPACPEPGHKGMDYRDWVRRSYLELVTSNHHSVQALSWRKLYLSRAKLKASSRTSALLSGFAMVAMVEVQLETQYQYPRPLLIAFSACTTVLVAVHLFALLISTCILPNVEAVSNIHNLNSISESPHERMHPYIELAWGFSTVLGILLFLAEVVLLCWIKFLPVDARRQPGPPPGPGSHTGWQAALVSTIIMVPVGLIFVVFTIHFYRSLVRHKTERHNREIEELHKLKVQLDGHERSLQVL
Chain of Protein orai-2/Stromal interaction molecule 1 (Q13586 whole entry): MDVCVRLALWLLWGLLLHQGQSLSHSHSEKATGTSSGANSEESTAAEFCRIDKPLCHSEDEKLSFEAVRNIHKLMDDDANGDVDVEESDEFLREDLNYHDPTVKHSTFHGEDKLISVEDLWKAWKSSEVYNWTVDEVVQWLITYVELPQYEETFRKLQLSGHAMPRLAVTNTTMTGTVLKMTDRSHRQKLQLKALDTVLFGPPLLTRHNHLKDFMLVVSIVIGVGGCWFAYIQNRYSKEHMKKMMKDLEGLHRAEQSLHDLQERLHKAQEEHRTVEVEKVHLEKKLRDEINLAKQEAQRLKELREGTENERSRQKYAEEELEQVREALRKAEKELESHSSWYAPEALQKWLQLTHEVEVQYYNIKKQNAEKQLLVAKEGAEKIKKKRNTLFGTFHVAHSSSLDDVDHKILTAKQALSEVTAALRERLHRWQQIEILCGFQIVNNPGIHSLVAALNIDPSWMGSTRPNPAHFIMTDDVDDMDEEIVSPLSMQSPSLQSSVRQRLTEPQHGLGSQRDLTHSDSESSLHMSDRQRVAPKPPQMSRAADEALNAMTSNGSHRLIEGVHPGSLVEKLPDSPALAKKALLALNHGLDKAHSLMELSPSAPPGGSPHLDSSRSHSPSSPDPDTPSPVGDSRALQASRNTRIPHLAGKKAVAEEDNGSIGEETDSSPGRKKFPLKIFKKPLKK
In data set [16] the target is T1, ORAI1/STIM1. As to the kind of experiment: Inhibition of Orai1/STIM1 (unknown origin). The format is protein-complex assay.
For data set [17], the target named is T1, ORAI1/STIM1. Put plainly: Inhibition of Orai1/STIM1 (unknown origin) expressed in HEK293 cells assessed as reduction in Ca2+-release activated Ca2+ entry current by manual patch clamp based electrophysiological method. The format is cell-based.
The nature of data set [18]: AUClast in collagen-induced rheumatoid arthritis DBA/1J mouse model at 0.75 mg/kg, po administered once daily for 15 days in presence of 3 mg/kg compound 36. Type of data set: ADME, organism-based. Set-up: route oral, dose 0.75 mg/kg, time 15 day. The following applies: in vivo.
Data set [19] can be described thus: in vivo. The following applies: DBA/1J, mouse, po, 0.75 mg/kg.
Data set [20] in a line: AUClast in collagen-induced rheumatoid arthritis DBA/1J mouse model at 0.75 mg/kg, po administered once daily for 15 days. Type of data set: ADME, organism-based. Set-up: route oral, time 15 day, dose 0.75 mg/kg. The following applies: in vivo.
Data set [21] is described as follows: Tmax in collagen-induced rheumatoid arthritis DBA/1J mouse model at 0.75 mg/kg, po administered once daily for 15 days in presence of 3 mg/kg compound 36. Type of data set: ADME, organism-based. The following applies: in vivo, time 15 day.
The nature of data set [22]: in vivo. The following applies: DBA/1J, mouse, po, 0.75 mg/kg. This is another data set of the same source.
Description: Cmax in collagen-induced rheumatoid arthritis DBA/1J mouse model at 0.75 mg/kg, po administered once daily for 15 days
Data set [23] in a line: Tmax in collagen-induced rheumatoid arthritis DBA/1J mouse model at 0.75 mg/kg, po administered once daily for 15 days. The format is ADME, organism-based. The following applies: in vivo, time 15 day.
Data set [24] can be described thus: Inhibition of SOCE in rat RBL-2H3 cells preincubated for 5 mins with thapsigargin followed by calcium chloride addition and measured after 5 mins by Fura-2AM dye based analysis. The format is cell-based.

T1 sequence (Q96D31 whole entry): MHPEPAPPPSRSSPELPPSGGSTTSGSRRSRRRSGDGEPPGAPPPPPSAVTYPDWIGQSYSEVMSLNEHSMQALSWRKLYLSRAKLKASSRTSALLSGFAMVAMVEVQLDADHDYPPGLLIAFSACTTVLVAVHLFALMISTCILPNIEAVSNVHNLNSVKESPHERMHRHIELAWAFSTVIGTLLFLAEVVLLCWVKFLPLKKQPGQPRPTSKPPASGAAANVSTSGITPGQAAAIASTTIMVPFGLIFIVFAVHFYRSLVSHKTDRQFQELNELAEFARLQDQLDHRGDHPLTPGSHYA
T1 sequence (Q13586 whole entry): as the sequence (Q13586 whole entry) above

Take `O=C(Nc1ccn(Cc2ccc(O)cc2C(F)(F)F)n1)c1c(F)cccc1F`: the IC50 in [1] and in data set [2] was 4000 nM in each case.

For `Cc1ccc(-c2nn(C)c(=O)o2)cc1-c1ccc(NC(=O)c2c(F)cccc2F)cc1`, the maximum concentration (Cmax) (as a rule, the peak of the concentration-time curve) is 4400 nM in [3] and 4100 nM in [10]. In addition, the Vd in data set [4] was 0.7 L/kg. Moreover, the results for the half-life in data set [5] and in data set [9] were 15.2 h and 7 h, respectively. The time to peak (Tmax) – broadly, the time at which the peak concentration occurs – in [6] came to 4.8 h; in data set [8] it was 4.8 min. In data set [7], the bioavailability (as a rule, dose-corrected exposure relative to a reference, in per cent) is 28%. The clearance (as a rule, the volume of plasma or blood freed of the substance per unit of time) in data set [11] came to 1.4 mL/min/kg. The AUC(0-t) (in general, the area under the concentration-time curve up to a stated or last time point) at 24 h in [12] amounted to 27 µM·h; in data set [13], 75 µM·h. Also, the concentration for half-maximal inhibition (IC50) – broadly, the concentration that inhibits the measured activity by half – in data set [14] was 140 nM.

On to `Cc1cccc(F)c1C(=O)Nc1cnc(-c2cc3c(cc2Cl)OC(F)(F)O3)cn1` [ZEGOCRACTIN], for which the IC50 in data set [15] came out at 895 nM; in data set [16] it was 119 nM.

`O=C(Nc1ccc(-c2cc(C(F)(F)F)ccc2Cl)cc1)c1c(F)cccc1F` yielded an AUC(0-t) at 24 h in data set [13] of 0.93 µM·h.

On to `O=C(Nc1ccn(Cc2c(F)cccc2C(F)(F)F)n1)c1c(F)cccc1F`, for which the IC50 in [17] was found to be 1000 nM.

In turn, `Cc1ccc(C2=NOC(C)(C)C2=O)cc1-c1cnc(NC(=O)c2c(F)cccc2F)cn1` had an area under the curve AUC(0-t) at 24 h in data set [13] of 13 µM·h.

With `CN(Cc1cnc2nc(N)nc(N)c2n1)c1ccc(C(=O)N[C@@H](CCC(=O)O)C(=O)O)cc1` [METHOTREXATE], the exposure AUC(0-t) at 360 h in data set [18] came out at 0.6 µM·h; in [20], 0.4 µM·h. Also, the Cmax at 360 h is 200 nM in [19] and 100 nM in data set [22]. The time of peak concentration (Tmax) in [21] and in [23] was 1 h throughout.

In the case of `O=C(Nc1ccc(-n2nc(C(F)(F)F)cc2C(F)(F)F)cc1)c1ccncc1F`, the IC50 in data set [24] turned out to be 490 nM.

The values are drawn from ChEMBL document CHEMBL4831556, “Discovery of a Novel Potent and Selective Calcium Release-Activated Calcium Channel Inhibitor: 2,6-Difluoro-N-(2'-methyl-3'-(4-methyl-5-oxo-4,5-dihydro-1,3,4-oxadiazol-2-yl)-[1,1'-biphenyl]-4-yl)benzamide. Structure-Activity Relationship and Preclinical Characterization” (J Med Chem, 2021).
